According to publication PMC2362906, “Effects of new 17α-hydroxylase/C17,20-lyase inhibitors on LNCaP prostate cancer cell growth in vitro and in vivo” (British Journal of Cancer, 1999):
One block for each compound: values may come before it.

Tests used:
[1] = biological target: T1, human 17α-hydroxylase/C17,20-lyase (P450c17) expressed in LNCaP-CYP17 cells (Homo sapiens, UniProt P05093); test: [3H]-acetic acid releasing assay (AARA) with LNCaP-CYP17 cells; assay type: cell-based; conditions: for IC50: LNCaP-CYP17 cells, 7 μM [21-3H]17-OHP5, 16 h, mean ± s.e.m., three experiments
T1 sequence (P05093 9-508 limits assumed): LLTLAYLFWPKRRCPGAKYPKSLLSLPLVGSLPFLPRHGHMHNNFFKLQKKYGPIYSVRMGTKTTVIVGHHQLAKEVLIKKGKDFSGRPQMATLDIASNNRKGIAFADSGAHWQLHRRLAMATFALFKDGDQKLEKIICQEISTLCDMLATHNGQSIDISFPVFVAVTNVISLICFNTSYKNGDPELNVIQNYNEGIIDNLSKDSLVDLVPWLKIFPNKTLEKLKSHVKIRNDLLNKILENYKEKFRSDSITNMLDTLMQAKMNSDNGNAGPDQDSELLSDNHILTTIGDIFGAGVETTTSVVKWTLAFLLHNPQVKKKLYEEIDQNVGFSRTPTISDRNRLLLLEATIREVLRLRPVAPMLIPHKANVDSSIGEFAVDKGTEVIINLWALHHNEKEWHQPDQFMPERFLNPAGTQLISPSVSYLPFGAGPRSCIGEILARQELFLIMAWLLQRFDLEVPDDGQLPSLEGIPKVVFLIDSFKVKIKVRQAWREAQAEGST

[2] = test system: LNCaP cells; test: Testosterone-stimulated wild-type LNCaP cell growth; assay type: cell-based, human; conditions: 0.1 nM testosterone
From the text: (§1) Prostate cancer is the most common malignancy and the second leading cause of cancer-related deaths among men in the US and the UK (Shibata et al, 1998). […] Steroidal 17-hydroxylase/C17,20 -lyase (P450c17) (EC 1.14.99.0) was selected as the target enzyme for inhibition, as this is a key regulatory enzyme of androgen synthesis. P450c17 catal- yses two sequential reactions in the steroid biosynthetic pathway and converts pregnenolone and progesterone to the C-19 andro- gens, dehydroepiandrosterone and androstenedione respectively. This enzyme has an identical amino acid sequence in testicular and adrenal tissues (Chung et al, 1987). […] In order to evaluate the effectiveness of these inhibitors we developed a multi-step system, which utilized the LNCaP human prostate cancer cell line. LNCaP cells remain the only androgen receptor (AR)-positive prostate cancer cell line, that can be readily grown in tissue culture (Horoszewicz et al, 1983). These cells respond to androgens with increased cell proliferation and elevated expression of prostate specific antigen (PSA) (Berns et al, 1993). LNCaP cells at early passages are not only androgen-responsive, but also androgen- dependent (Pousette et al, 1997). This is similar to the situation in most tumours of prostatic cancer patients, which are initially highly responsive and dependent on androgens. […] Therefore, we employed LNCaP cells as a model for evaluating the effectiveness of our new inhibitors of androgen synthesis. In this study the compounds selected for evaluation were two groups of azolyl steroids. […] Here we report on the application of LNCaP-CYP17-transfected cells for determining the inhibitory potencies of the new compounds against the P450c17 enzyme. […] We designed and evaluated two groups of azolyl steroids: 5-non-competitive inhibitors (5NCIs), VN/63-1, VN/85-1, VN/87-1 and their corresponding 4 derivatives (4NCIs), VN/107-1, VN/108-1 and VN/109-1. The human P450c17 gene was transfected into LNCaP human prostate cancer cells, and the resultant LNCaP- CYP17 cells were utilized to evaluate the inhibitory potency of the new azolyl steroids. […] We further evaluated our inhibitors in male severe combined immuno- deficient mice bearing LNCaP tumour xenografts. […] We also utilized wild-type LNCaP prostatic carcinoma cells for evaluating the direct effects of new azolyl steroids on proliferation of these cells in vitro and in vivo. MATERIALS AND METHODS Materials The human prostate cancer cell line LNCaP was obtained from the American Type Culture Collection (Rockville, MD, USA). RPMI- 1640 medium, trypsin-EDTA (0.25%/0.02%), penicillin/strepto- mycin (P/S), geniticin (G418), and LipofectAMINE were from Gibco-BRL (Grand Island, NY, USA). Fetal bovine serum (FBS) was obtained from Summit Biotechnology Inc. (Fort Collins, CO, USA) and steroid-free FBS was prepared as described previously (Klus et al, 1996). Phenol red free IMEM and trypsin-versine were purchased from Biofluids Inc. (Rockville, MD, USA). Chloroform and acetonitrile were purchased from JT Baker, Inc (Phillipsburg, NJ, USA). Hydroxypropyl cellulose (HPC) was purchased from Sigma Chemical Co. (St Louis, MO, USA). The PSA enzyme- linked immunusorbent assay (ELISA) kit was from DSL Inc. (Webster, TX, USA). Matrigel was generously supplied by Dr Hynda Kleinman (NIH, Bethesda, MD, USA). Inhibitors of androgen synthesis: VN/63-1, VN/85-1, VN/87-1, VN/107-1, VN/108-1 and VN/109-1 were synthesized in our labo- ratory as previously described (Njar et al, 1998). […] Metribolone [17-methyl-3 H]-R1881 ([3 H]-R1881: specific activity 86 Ci mmol-1 ) was purchased from Dupont NEN (Boston, MA, USA).

[3] = test system: LNCaP cells; test: DHT-stimulated wild-type LNCaP cell growth; assay type: cell-based, human; conditions: 0.03 nM DHT, 9 days
From the text: as §1

[4] = test system: LNCaP tumour xenografts; test: LNCaP tumour xenograft growth in male SCID mice; assay type: in vivo
From the text: as §1

[5] = test system: serum testosterone; test: Serum testosterone (RIA) in SCID mice; assay type: in vivo, male SCID mice; conditions: 28 days of treatment, 50 mg kg-1 day-1
From the text: as §1

[6] = test system: serum DHT; test: Serum DHT (RIA) in SCID mice; assay type: in vivo, male SCID mice; conditions: 28 days of treatment, 50 mg kg-1 day-1
From the text: as §1

[7] = biological target: human prostatic 5-reductase; set-up: method as in Njar et al, 1998; conditions: human prostatic microsomes; reported previously; ref Njar et al, 1998; cited from earlier work
[8] = test system: LNCaP cells; test: LNCaP cell growth in steroid-free medium; assay type: cell-based, human
From the text: Prostate cancer is the most common malignancy and the second leading cause of cancer-related deaths among men in the US and the UK (Shibata et al, 1998). […] Steroidal 17-hydroxylase/C17,20 -lyase (P450c17) (EC 1.14.99.0) was selected as the target enzyme for inhibition, as this is a key regulatory enzyme of androgen synthesis. P450c17 catal- yses two sequential reactions in the steroid biosynthetic pathway and converts pregnenolone and progesterone to the C-19 andro- gens, dehydroepiandrosterone and androstenedione respectively. This enzyme has an identical amino acid sequence in testicular and adrenal tissues (Chung et al, 1987). […] In order to evaluate the effectiveness of these inhibitors we developed a multi-step system, which utilized the LNCaP human prostate cancer cell line. LNCaP cells remain the only androgen receptor (AR)-positive prostate cancer cell line, that can be readily grown in tissue culture (Horoszewicz et al, 1983). These cells respond to androgens with increased cell proliferation and elevated expression of prostate specific antigen (PSA) (Berns et al, 1993). LNCaP cells at early passages are not only androgen-responsive, but also androgen- dependent (Pousette et al, 1997). This is similar to the situation in most tumours of prostatic cancer patients, which are initially highly responsive and dependent on androgens. […] Therefore, we employed LNCaP cells as a model for evaluating the effectiveness of our new inhibitors of androgen synthesis. In this study the compounds selected for evaluation were two groups of azolyl steroids. […] Here we report on the application of LNCaP-CYP17-transfected cells for determining the inhibitory potencies of the new compounds against the P450c17 enzyme. […] We designed and evaluated two groups of azolyl steroids: 5-non-competitive inhibitors (5NCIs), VN/63-1, VN/85-1, VN/87-1 and their corresponding 4 derivatives (4NCIs), VN/107-1, VN/108-1 and VN/109-1. The human P450c17 gene was transfected into LNCaP human prostate cancer cells, and the resultant LNCaP- CYP17 cells were utilized to evaluate the inhibitory potency of the new azolyl steroids. […] We further evaluated our inhibitors in male severe combined immuno- deficient mice bearing LNCaP tumour xenografts. […] We also utilized wild-type LNCaP prostatic carcinoma cells for evaluating the direct effects of new azolyl steroids on proliferation of these cells in vitro and in vivo. MATERIALS AND METHODS Materials The human prostate cancer cell line LNCaP was obtained from the American Type Culture Collection (Rockville, MD, USA). RPMI- 1640 medium, trypsin-EDTA (0.25%/0.02%), penicillin/strepto- mycin (P/S), geniticin (G418), and LipofectAMINE were from Gibco-BRL (Grand Island, NY, USA). […]

[9] = test system: serum PSA; test: Serum PSA (ELISA) in LNCaP tumour-bearing SCID mice; assay type: in vivo, male SCID mice; conditions: 50 mg kg-1 day-1, 28 days
From the text: Prostate cancer is the most common malignancy and the second leading cause of cancer-related deaths among men in the US and the UK (Shibata et al, 1998). […] Steroidal 17-hydroxylase/C17,20 -lyase (P450c17) (EC 1.14.99.0) was selected as the target enzyme for inhibition, as this is a key regulatory enzyme of androgen synthesis. P450c17 catal- yses two sequential reactions in the steroid biosynthetic pathway and converts pregnenolone and progesterone to the C-19 andro- gens, dehydroepiandrosterone and androstenedione respectively. This enzyme has an identical amino acid sequence in testicular and adrenal tissues (Chung et al, 1987). […] In order to evaluate the effectiveness of these inhibitors we developed a multi-step system, which utilized the LNCaP human prostate cancer cell line. LNCaP cells remain the only androgen receptor (AR)-positive prostate cancer cell line, that can be readily grown in tissue culture (Horoszewicz et al, 1983). These cells respond to androgens with increased cell proliferation and elevated expression of prostate specific antigen (PSA) (Berns et al, 1993). LNCaP cells at early passages are not only androgen-responsive, but also androgen- dependent (Pousette et al, 1997). This is similar to the situation in most tumours of prostatic cancer patients, which are initially highly responsive and dependent on androgens. […] Therefore, we employed LNCaP cells as a model for evaluating the effectiveness of our new inhibitors of androgen synthesis. In this study the compounds selected for evaluation were two groups of azolyl steroids. […] Here we report on the application of LNCaP-CYP17-transfected cells for determining the inhibitory potencies of the new compounds against the P450c17 enzyme. […] We designed and evaluated two groups of azolyl steroids: 5-non-competitive inhibitors (5NCIs), VN/63-1, VN/85-1, VN/87-1 and their corresponding 4 derivatives (4NCIs), VN/107-1, VN/108-1 and VN/109-1. The human P450c17 gene was transfected into LNCaP human prostate cancer cells, and the resultant LNCaP- CYP17 cells were utilized to evaluate the inhibitory potency of the new azolyl steroids. […] We further evaluated our inhibitors in male severe combined immuno- deficient mice bearing LNCaP tumour xenografts. […] We also utilized wild-type LNCaP prostatic carcinoma cells for evaluating the direct effects of new azolyl steroids on proliferation of these cells in vitro and in vivo. MATERIALS AND METHODS Materials The human prostate cancer cell line LNCaP was obtained from the American Type Culture Collection (Rockville, MD, USA). RPMI- 1640 medium, trypsin-EDTA (0.25%/0.02%), penicillin/strepto- mycin (P/S), geniticin (G418), and LipofectAMINE were from Gibco-BRL (Grand Island, NY, USA). Fetal bovine serum (FBS) was obtained from Summit Biotechnology Inc. (Fort Collins, CO, USA) and steroid-free FBS was prepared as described previously (Klus et al, 1996). Phenol red free IMEM and trypsin-versine were purchased from Biofluids Inc. (Rockville, MD, USA). Chloroform and acetonitrile were purchased from JT Baker, Inc (Phillipsburg, NJ, USA). Hydroxypropyl cellulose (HPC) was purchased from Sigma Chemical Co. (St Louis, MO, USA). The PSA enzyme- linked immunusorbent assay (ELISA) kit was from DSL Inc. (Webster, TX, USA). Matrigel was generously supplied by Dr Hynda Kleinman (NIH, Bethesda, MD, USA). […]

[10] = second experiment, 50 mg kg-1 day-1, 28 days
[11] = Table 3, second experiment, control 0.205
[12] = Table 3, second experiment, control 239.2
[13] = first experiment, 50 mg kg-1 day-1, 28 days
[14] = Table 2, first experiment, control 1.043
[15] = Table 2, first experiment, control 243.8

SMILES: C[C@]12CC[C@H](O)CC1=CC[C@@H]1[C@@H]2CC[C@]2(C)C(n3cncn3)=CC[C@@H]12 [VN/63-1]
- IC50 [1]: 0.0471 µM
- Concentration that completely inhibited the growth stimulatory effect of testosterone ([2]; 9 days): 1.0 µM
- Concentration that completely blocked DHT stimulation [3]: 1.0 µM
- Effect on tumour growth (words) [4, 10]: Neither VN/63-1, VN/107 nor ketoconazole had any appreciable effects
- Serum Testosterone [5, 11]: 0.146 ng/mL
- Serum DHT [6, 12]: 189.7 pg/mL
- IC50 [7]: > 5 µM

- IC50 [1]: > 5 µM
SMILES: CC(C)(C)NC(=O)[C@H]1CC[C@H]2[C@@H]3CC[C@H]4NC(=O)C=C[C@]4(C)[C@H]3CC[C@]12C [Finasteride, reference compound]
- inhibition at 5 µM ([8]; Homo sapiens, LNCaP, 5 μM concentration): 25%
- Inhibition of LNCaP cell growth in steroid-free media ([8]; concentrations of 1.0-5.0 μM, 9 days): 20-30%
- Reduction of tumour weights compared to vehicle-treated mice [4, 13]: 22%
- Inhibition of LNCaP tumour growth (tumour volume) [4, 10]: 29%
- Reduction of tumour weights [4, 10]: 28%
- Serum PSA levels versus control ([9]; first experiment): significantly lower
- Serum PSA levels versus control ([9]; second experiment): significantly lower
- Serum Testosterone [5, 14]: 1.389 ng/mL
- Serum Testosterone [5, 11]: 0.638 ng/mL
- Serum DHT [6, 15]: 137.0 pg/mL
- Serum DHT [6, 12]: 223.4 pg/mL
- IC50 [7]: 0.033 µM

SMILES: CC(=O)[C@@]1(O)CC[C@H]2[C@@H]3CC=C4C[C@@H](O)CC[C@]4(C)[C@H]3CC[C@@]21C [[213 H]17-hydroxypregnenolone, [21-3 H]17-Hydroxypregnenolone, reference compound]
- Km ([1]; substrate 0.5-20 μM, 16 h, 37C, RADLIG software): 0.87 µM

SMILES: C[C@]12CC[C@H](O)CC1=CC[C@@H]1[C@@H]2CC[C@]2(C)C(n3ccnn3)=CC[C@@H]12 [VN/87-1]
- IC50 [1]: 0.00797 µM
- Inhibition of LNCaP tumour growth (tumour volume) ([4]; first experiment, 50 mg kg-1 day-1, 4 weeks): 33%
- Reduction of tumour weights compared to vehicle-treated mice [4, 13]: 31%
- Serum PSA levels versus control ([9]; first experiment): significantly lower
- Serum Testosterone [5, 14]: 0.343 ng/mL
- Serum DHT [6, 15]: 128.6 pg/mL
- IC50 [7]: > 5 µM

- IC50 [1]: > 5 µM
SMILES: CC(C)C(=O)Nc1ccc([N+](=O)[O-])c(C(F)(F)F)c1 [Flutamide, reference compound]
- Inhibition of testosterone stimulated cell growth ([2]; compound at 2.5 and 5.0 μM): ~ 50%
- Stimulation of cell growth compared to DHT-treated cells [3]: 10-20%
